Assay results from ChEMBL document CHEMBL1221220, “Transport and signaling via the amino acid binding site of the yeast Gap1 amino acid transceptor” (Nat Chem Biol, 2009).
The source made the active and inactive calls. The rule behind the calls is not given here. Non-standard residues stand in square brackets, D forms with d. Residues, ends and D or L forms follow the SMILES beside them. *: point of attachment. Hyp = O=C(O)[C@@H]1C[C@@H](O)CN1; Cit = NC(=O)NCCC[C@H](N)C(=O)O; βNA = c1ccc2cc(N*)ccc2c1; Abu = CC[C@H](N)C(=O)O; Boc = CC(C)(C)OC(=O)*; Aib = CC(C)(N)C(=O)O; βAla = NCCC(=O)O; Sar = CNCC(=O)O

These compounds were tested against T1, General amino-acid permease GAP1 (Saccharomyces cerevisiae) (UniProt P19145) (assay: Noncompetitive inhibition of nitrogen-starved wild type sigma1278b yeast Gap1-mediated amino acid uptake at 5 mM after 60 secs relative to L-citrulline). Settings: not given.
T1 sequence (whole entry): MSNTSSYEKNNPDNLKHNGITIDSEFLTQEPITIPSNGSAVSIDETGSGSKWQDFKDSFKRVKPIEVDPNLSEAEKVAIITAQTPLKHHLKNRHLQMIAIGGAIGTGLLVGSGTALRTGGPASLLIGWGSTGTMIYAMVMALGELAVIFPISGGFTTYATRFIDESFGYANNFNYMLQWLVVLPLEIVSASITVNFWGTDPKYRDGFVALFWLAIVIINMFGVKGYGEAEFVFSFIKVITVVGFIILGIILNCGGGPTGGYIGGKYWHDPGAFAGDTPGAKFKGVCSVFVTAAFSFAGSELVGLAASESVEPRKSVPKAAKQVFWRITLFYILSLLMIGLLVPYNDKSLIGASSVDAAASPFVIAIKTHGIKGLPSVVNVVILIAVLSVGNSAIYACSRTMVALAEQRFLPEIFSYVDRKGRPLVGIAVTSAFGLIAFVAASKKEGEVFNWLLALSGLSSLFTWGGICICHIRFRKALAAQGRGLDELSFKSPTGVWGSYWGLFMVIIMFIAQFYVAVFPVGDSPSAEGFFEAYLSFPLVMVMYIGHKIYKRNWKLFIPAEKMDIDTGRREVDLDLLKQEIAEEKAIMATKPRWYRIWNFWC

| SMILES | inhibition [%] |
| --- | --- |
| CC(C)C[C@H](NC(=O)[C@H](CC(C)C)NC(=O)CCN)C(=O)O (H-[βAla]-Leu-Leu-OH) | 15 |
| C[C@H](NC(=O)[C@H](Cc1ccccc1)NC(=O)[C@@H](N)CCCNC(=N)N)C(=O)O (H-Arg-Phe-Ala-OH) | > 30 |
| CC(C)C[C@H](NC(=O)[C@H](CC(C)C)NC(=O)[C@@H](N)CC(C)C)C(=O)O (H-Leu-Leu-Leu-OH) | 15 |
| CC(C)C[C@H](NC(=O)[C@@H](NC(=O)[C@@H](N)CC(C)C)C(C)C)C(=O)O (H-Leu-Val-Leu-OH) | 15 |
| CC(C)C[C@H](NC(=O)[C@@H](N)CC(C)C)C(=O)N[C@@H](C)C(=O)O (H-Leu-Leu-Ala-OH) | 15 |
| N=C(N)NCCC[C@H](N)C(=O)NCC(=O)NCC(=O)O (H-Arg-Gly-Gly-OH) | > 30 |
| CC(N)C(=O)NC(Cc1ccccc1)C(=O)O (racemic) | > 30 |
| CC(C)C[C@H](N)C(=O)N[C@H](CC(C)C)C(=O)O | > 30 |
| C[C@H](N)C(=O)NCC(=O)N[C@@H](C)C(=O)O (H-Ala-Gly-Ala-OH) | > 30 |
| CC(C)[C@H](NC(=O)CNC(=O)[C@H](C)N)C(=O)O (H-Ala-Gly-Val-OH) | > 30 |
| N=C(N)NCCC[C@H](NC(=O)[C@@H](N)CCCNC(=N)N)C(=O)Nc1ccc2ccccc2c1 (H-Arg-Arg-βNA) | > 30 |
| CC(C)C[C@H](NC(=O)[C@H](C)N)C(=O)O (H-Ala-Leu-OH) | > 30 |
| CSCC[C@H](NC(=O)[C@@H](N)CC(C)C)C(=O)O (H-Leu-Met-OH) | 15 |
| CC(C)C[C@H](NC(=O)CCCCN)C(=O)O | > 30 |
| NC(N)=NCCC[C@H](N)C(=O)NCC(=O)O (H-Arg-Gly-OH) | > 30 |

These compounds were tested against T1, General amino-acid permease GAP1 (Saccharomyces cerevisiae) (assay: Competitive inhibition of nitrogen-starved wild type sigma1278b yeast Gap1-mediated amino acid uptake at 5 mM after 60 secs relative to L-citrulline). Settings: not given.

| SMILES | inhibition [%] |
| --- | --- |
| N[C@@H](CC(=O)O)C(=O)N[C@@H](Cc1ccccc1)C(=O)O (H-Asp-Phe-OH) | > 30 |

Each compound was assayed against T1, General amino-acid permease GAP1 (Saccharomyces cerevisiae) (assay: Induction of nitrogen-starved wild type sigma1278b yeast Gap1-mediated […] activation at 10 mM). Settings: not given.

| SMILES | Activity |
| --- | --- |
| N[C@@H](CC(=O)O)C(=O)O | Active |
| O=C(O)[C@@H]1CCCN1 | Active |
| N[C@@H](CO)C(=O)O | Active |
| N[C@@H](CCC(=O)O)C(=O)O | Active |
| NCCCC[C@H](N)C(=O)O | inactive |
| N[C@@H](Cc1ccccc1)C(=O)O | Active |
| C[C@@H](O)[C@H](N)C(=O)O | Active |
| N[C@@H](Cc1c[nH]cn1)C(=O)O | inactive |
| N[C@@H](Cc1c[nH]c2ccccc12)C(=O)O | inactive |

Each compound was assayed against T1, General amino-acid permease GAP1 (Saccharomyces cerevisiae). Settings: sigma1278b, at 5 mM.
Description: Inhibition of nitrogen-starved wild type sigma1278b yeast Gap1-mediated amino acid uptake at 5 mM after 60 secs relative to L-citrulline

| SMILES | inhibition [%] |
| --- | --- |
| CC(=O)N[C@@H](COC(C)(C)C)C(=O)O | < 15 |
| NC(=O)[C@H](CCC(=O)O)NC(=O)[C@@H]1CCCN1 (H-Pro-Glu-NH2) | < 15 |
| CN(CC(=O)O)C(=O)CN (H-Gly-[Sar]-OH) | < 15 |
| CSCC[C@H](N)C(=O)NCC(=O)NCC(=O)O (H-Met-Gly-Gly-OH) | < 15 |
| CC(C)[C@@H](NC(=O)CN)C(=O)O | < 15 |
| CC(C)C[C@H](NC(=O)CCCN)C(=O)O | < 15 |
| CC(C)C[C@H](NC(=O)CCN)C(=O)O | < 15 |
| N[C@@H](CCC(=O)O)C(=O)N[C@@H](CCC(=O)O)C(=O)O (H-Glu-Glu-OH) | < 15 |
| CC(C)C[C@H](N)C(=O)N[C@H](C(=O)O)C(C)C (H-Leu-Val-OH) | < 15 |
| COC(=O)[C@@H](N)[C@@H](C)O | < 15 |
| CC[C@H](C)[C@H](N)C(=O)N[C@@H](CO)C(=O)O (H-Ile-Ser-OH) | < 15 |
| NCCCC(=O)N[C@@H](Cc1cnc[nH]1)C(=O)O | < 15 |
| CCOC(=O)[C@@H](N)Cc1ccccc1 | < 15 |
| CC(C)C(NC(=O)CN)C(=O)O (racemic) | < 15 |
| COC(=O)CC[C@H](N)C(=O)OC | < 15 |
| CC(C)[C@H](N)C(=O)NCC(=O)O (H-Val-Gly-OH) | < 15 |
| CC[C@H](C)[C@H](NC(=O)CNC(=O)CN)C(=O)O (H-Gly-Gly-Ile-OH) | < 15 |
| CC[C@H](C)[C@H](N)C(=O)N[C@@H](CC(C)C)C(=O)N[C@@H](CC(C)C)C(=O)O (H-Ile-Leu-Leu-OH) | > 30 |
| NCC(=O)NCCCC(=O)O | < 15 |
| C[C@H](NC(=O)OC(C)(C)C)C(=O)NC(C)(C)C(=O)O (Boc-Ala-[Aib]-OH) | < 15 |
| N[C@@H](Cc1c[nH]c2ccccc12)C(=O)N[C@@H](CCC(=O)O)C(=O)O (H-Trp-Glu-OH) | < 15 |
| CC(NC(=O)CN)C(=O)O (racemic) | 15 |
| NCC(=O)NCC(=O)N[C@@H](CC(=O)O)C(=O)O (H-Gly-Gly-Asp-OH) | < 15 |
| O=C(O)C[C@H](NC(=O)OCc1ccccc1)C(=O)O | < 15 |

| SMILES | inhibition [%] |
| --- | --- |
| NCCCC[C@H](N)C(=O)N[C@@H](Cc1c[nH]c2ccccc12)C(=O)O (H-Lys-Trp-OH) | < 15 |
| CC[C@H](C)[C@H](N)C(=O)N[C@@H](C)C(=O)N1CCC[C@H]1C(=O)O (H-Ile-Ala-Pro-OH) | 15 |
| NCC(=O)NCC(=O)NCCC(=O)O (H-Gly-Gly-[βAla]-OH) | < 15 |
| C[C@@H](CC(=O)O)NC(=O)OC(C)(C)C | < 15 |
| CC(C)C[C@H](NC(=O)CN)C(=O)N1C[C@H](O)C[C@H]1C(=O)O (H-Gly-Leu-[Hyp]-OH) | < 15 |
| NCC(N)=O | < 15 |
| CC(C)C[C@H](NC(=O)[C@@H](N)CC(C)C)C(=O)N[C@@H](CCC(=O)O)C(=O)O (H-Leu-Leu-Glu-OH) | 15 |
| O=C(O)[C@@H]1C=CCN1 | < 15 |
| NC(=O)C(N)Cc1c[nH]c2ccccc12 (racemic) | < 15 |
| NCC(=O)NCC(=O)N[C@@H](CCC(=O)O)C(=O)O (H-Gly-Gly-Glu-OH) | < 15 |
| CCOC(=O)C(N)Cc1c[nH]c2ccccc12 (racemic) | < 15 |
| C[C@@H](O)C(NC(=O)CN)C(=O)O (mixture of isomers) | 15 |
| CC(C)[C@H](NC(=O)[C@@H](N)CCCNC(N)=O)C(=O)O (H-[Cit]-Val-OH) | < 15 |
| CC(=O)NC(Cc1ccc(Br)cc1)C(=O)O (racemic) | 15 |
| CSCC[C@H](N)C(=O)N[C@@H](CC(C)C)C(=O)O (H-Met-Leu-OH) | < 15 |
| NCC[C@H]1CC[C@H](C(=O)O)CC1 | < 15 |
| CSCC[C@H](NC(=O)[C@H](C)N)C(=O)O (H-Ala-Met-OH) | > 30 |
| N[C@H](CO)Cc1c[nH]c2ccccc12 | < 15 |
| N[C@@H](CC(=O)O)C(=O)N[C@@H](CO)C(=O)O (H-Asp-Ser-OH) | < 15 |
| NCC(=O)N[C@@H](Cc1ccccc1)C(N)=O (H-Gly-Phe-NH2) | 15 |
| CC[C@H](C)[C@H](NC(=O)CN)C(=O)NCC(=O)O (H-Gly-Ile-Gly-OH) | < 15 |
| N[C@@H](CO)C(=O)NCC(=O)NCC(=O)O (H-Ser-Gly-Gly-OH) | < 15 |
| C[C@H](NC=O)C(=O)O | > 30 |
| NCC(=O)NCC(=O)O (H-Gly-Gly-OH) | < 15 |

| SMILES | inhibition [%] |
| --- | --- |
| CC(C)(C)OC(=O)N1CCC[C@H]1C(=O)O | < 15 |
| CC(C)C[C@H](N)C(=O)N[C@@H](CC(N)=O)C(=O)O (H-Leu-Asn-OH) | < 15 |
| N[C@@H](Cc1ccco1)C(=O)O | > 30 |
| C[C@H](NC(=O)CN)C(=O)O (H-Gly-Ala-OH) | 15 |
| CC(C)(C)OC(=O)N[C@@H](Cc1ccccc1)C(=O)O | > 30 |
| N[C@@H](Cc1cnc[nH]1)C(=O)N[C@@H](CCC(=O)O)C(=O)O (H-His-Glu-OH) | < 15 |
| CC[C@H](N)C(=O)N[C@@H](CC(C)C)C(=O)O (H-[Abu]-Leu-OH) | < 15 |
| CC(C)(C)OC(=O)[C@@H](N)CSSC[C@H](N)C(=O)OC(C)(C)C | < 15 |
| CCCC[C@H](NC(=O)OC(C)(C)C)C(=O)O | < 15 |
| N[C@@H](CO)C(=O)N[C@@H](Cc1ccc(O)cc1)C(=O)O (H-Ser-Tyr-OH) | < 15 |
| O=C(O)[C@@H]1CCCN1C(=O)[C@@H]1C[C@@H](O)CN1C(=O)[C@@H]1CCCN1 (H-Pro-[Hyp]-Pro-OH) | < 15 |
| N=C(N)NCCC[C@H](NC(=O)[C@@H](N)Cc1ccccc1)C(=O)O (H-Phe-Arg-OH) | < 15 |
| NCC(=O)N[C@@H](CO)C(=O)NCCS(=O)(=O)O | < 15 |
| CC(C)(C)OC(=O)NC1(C(=O)O)CCCC1 | < 15 |
| CC[C@H](C)[C@H](NC(=O)OC(C)(C)C)C(=O)O | < 15 |
| CC(C)C[C@H](NC(=O)[C@@H]1C[C@@H](O)CN1)C(=O)O (H-[Hyp]-Leu-OH) | < 15 |
| COC(=O)[C@H](N)Cc1cnc[nH]1 | < 15 |
| CC[C@H](C)[C@H](NC(C)=O)C(=O)O | < 15 |
| CC(C)[C@H](N)C(=O)N[C@H](C(=O)O)C(C)C (H-Val-Val-OH) | 15 |
| CC(C)C[C@H](NC(=O)CNC(=O)CN)C(=O)O | < 15 |
| CSCC[C@H](N)C(=O)N[C@@H](C)C(=O)O (H-Met-Ala-OH) | < 15 |
| NC(=O)[C@H](Cc1ccccc1)NC(=O)[C@@H](N)CC(=O)O (H-Asp-Phe-NH2) | < 15 |
